Measured values published in patent publication US20260373266A1, “PROTEIN DEGRADERS AND USES THEREOF” (KYMERA THERAPEUTICS, INC., priority 2022, published 2026).
pKd: −log10 of the molar value. Read-outs that look alike come from different tables or passages of the source.

Biological target: T1, DCAF1 WD40 domain (residues 1077-1390) (Homo sapiens, UniProt Q9Y4B6)
T1 construct: DCAF1 WD40 domain (residues 1077-1390)
Assay: DCAF1 binding assay by SPR (Biacore 8K+), DCAF1-3 KD
Details: 25 °C

T1 sequence (Q9Y4B6 1077-1390): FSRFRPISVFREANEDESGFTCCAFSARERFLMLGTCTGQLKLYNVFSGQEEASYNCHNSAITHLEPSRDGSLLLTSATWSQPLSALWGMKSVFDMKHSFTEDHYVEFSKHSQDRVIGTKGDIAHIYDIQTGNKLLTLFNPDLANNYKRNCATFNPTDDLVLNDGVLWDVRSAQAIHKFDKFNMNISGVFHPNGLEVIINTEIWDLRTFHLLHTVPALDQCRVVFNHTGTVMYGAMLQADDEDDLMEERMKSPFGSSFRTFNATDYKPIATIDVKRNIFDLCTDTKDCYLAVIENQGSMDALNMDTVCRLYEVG

Structure (SMILES) | pKd (read-out: DCAF1-3 SPR (KD)) | pKd (DCAF1-3 SPR (KD))
NC(=O)C[C@H](NC(=O)c1[nH]nc(CN2CCOCC2)c1-c1ccccc1F)c1cccc(Cl)c1 [I-178] | < 3.70 | 
COCCOCCOCCC(c1cc(N2CC3CCC(C3)C2)ccn1)[C@@H]1CCCN(c2cccc(F)c2)C1 (stereo partly drawn) [I-615] | > 5.00 | 
Cc1c(F)ccc(F)c1-c1c(C(=O)N[C@@H](CC(=O)N(C)C)c2cccc(Cl)c2)c[nH]c1C(=O)COCCOCCOCCOCCOCCN [I-822] | > 5.00 | 
CN1CCC(n2cc(N3CCC[C@@H](Nc4cc(N5CCOCC5)ccn4)C3)cn2)CC1 [I-419] | < 3.70 | 
Fc1cccc(N2CCC[C@@H](n3ccc4c(N5CCOCC5)ccnc43)C2)c1 [I-49] | 3.70 to 4.00 | 
NC(=O)C[C@H](NC(=O)c1cc(=O)[nH]cc1-c1ccccc1F)c1cccc(Cl)c1 [I-215] | < 3.70 | 
NC(=O)C[C@H](NC(=O)c1cnn(Cc2ccccc2)c1-c1ccccc1F)c1cccc(Cl)c1 [I-140] | < 3.70 | 
NC(=O)CC1(NC(=O)c2cn[nH]c2-c2ccccc2F)CCc2ccc(Cl)cc21 (stereo not drawn) [I-607] | 4.00 to 5.00 | 
Nc1cc(N[C@@H]2CCCN(c3cccc(F)c3)C2)cc(N2CCOCC2)c1 [I-538] | > 5.00 | 
Cc1sc2c(c1C)C(c1ccc(Cl)cc1)=N[C@@H](CC(=O)N(C)CCOCCOCCOCCOCCOCC(=O)c1[nH]cc(C(=O)N[C@@H](CC(N)=O)c3cccc(Cl)c3)c1-c1ccccc1F)c1nnc(C)n1-2 [I-900] | > 5.00 | 
OCCCc1cccc(N2CCC[C@@H](Nc3cc(N4CCOCC4)ccn3)C2)c1 [I-862] | 4.00 to 5.00 | 
Cc1c(F)ccc(F)c1-c1[nH]ncc1C(=O)N[C@@H](CC(=O)N1CCN(C)CC1)c1cccc(Cl)c1 [I-843] | > 5.00 | 
COCCOCCC1CN(c2cc(N3CCOCC3)ccn2)[C@H]2CCCN(c3cccc(F)c3)[C@@H]12 (stereo partly drawn) [I-827] | > 5.00 | 
Fc1cccc(N2CCC[C@@H](Nc3cc([C@@H]4CCCNC4)ccn3)C2)c1 [I-109] | < 3.70 | 
NC(=O)C[C@H](NC(=O)c1cn[nH]c1-c1cccc(C(N)=O)c1)c1cccc(Cl)c1 [I-350] | 4.00 to 5.00 | 
NC(=O)N1CC2(CCCN(c3cccc(F)c3)C2)Nc2cc(N3CCCCC3)ncc21 (stereo not drawn) [I-1006] | 3.70 to 4.00 | 
Fc1ccccc1N1CCC[C@@H](Nc2cc(N3CCOCC3)ncn2)C1 [I-3] | < 3.70 | 
C[C@H]1CCCCN1c1ccnc(N2CC[C@H]3[C@@H]2CCCN3c2cccc(F)c2)c1 [I-644] | 4.00 to 5.00 | 
CC1(C)CCCCN1c1ccnc(N[C@@H]2CCCN(c3cccc(F)c3)C2)c1 [I-658] | 4.00 to 5.00 | 
Cc1ccc(C(=O)c2[nH]cc(C(=O)N[C@@H](CC(N)=O)c3cccc(Cl)c3)c2-c2c(C)cccc2F)cc1 [I-625] | > 5.00 | 
Fc1cccc(N2CCC[C@H](Cc3cc(N4CCOCC4)ccn3)C2)c1 [I-98] | < 3.70 | 

Structure (SMILES) | pKd (read-out: DCAF1-3 SPR (KD)) | pKd (DCAF1-3 SPR (KD))
Cc1cnc(N2CCOCC2)cc1N[C@@H]1CCCN(c2cccc(F)c2)C1 [I-404] | < 3.70 | 
CCCCCCC[C@H]1CCCN(c2ccnc(N3CC[C@@H]4[C@H]3CCCN4c3cccc(F)c3)c2)C1 [I-727] | < 3.70 | 
NC(=O)C[C@H](NC(=O)c1c[nH]nc1-c1ccccc1O)c1cccc(Cl)c1 [I-334] | 4.00 to 5.00 | 
Cc1cccc(F)c1-c1c(C(=O)N[C@@H](CC(N)=O)c2cccc(Cl)c2)c[nH]c1C(=O)c1ccc(N2CCCCC2)cc1 [I-801] | > 5.00 | 
C=CC(=O)N1C[C@H](c2ccc(Br)cc2)[C@@H]1C(=O)N1CCN(c2ccnc(N[C@@H]3CCCN(c4cccc(F)c4)C3)c2)CC1 [I-641] | 4.00 to 5.00 | 
CN(C)c1ccnc(N[C@@H]2CCCN(c3cccc(F)c3)C2)c1 [I-498] | 4.00 to 5.00 | 
Fc1cccc(N2CCC[C@@H](N(CCc3ccccc3)c3nccc(N4CCOCC4)n3)C2)c1 [I-323] | < 3.70 | 
C[C@@]1(Nc2cc(N3CCOCC3)ccn2)CCCN(c2cccc(F)c2)C1 [I-500] | < 3.70 | 
COC(C)(c1cc(N2CCOCC2)ccn1)C1CCCN(c2cccc(F)c2)C1 (stereo not drawn) [I-262] | < 3.70 | 
Cc1c(F)ccc(F)c1-c1c(C(=O)NC(CC(N)=O)c2cccc(Cl)c2)cn(C)c1C(=O)COCCOCCOCCOCCOCCN (stereo not drawn) [I-844] | > 5.00 | 
Oc1c(CN2CCCCC2)cccc1[C@@H]1CCCN(c2cccc(F)c2)C1 [I-730] | < 3.70 | 
Fc1cccc(N2C[C@H](Nc3cc(N4CCOCC4)ncn3)C3CC[C@H]2C3)c1 [I-383] | < 3.70 | 
CO[C@@H]1C[C@@H](Nc2cc(N3CCOCC3)ccn2)CN(c2cccc(F)c2)C1 [I-512] | < 3.70 | 
Fc1cccc(N2CCC[C@H](Cc3cc(N4CCOCC4)[nH]n3)C2)c1 [I-632] | < 3.70 | 
Cc1c(F)ccc(F)c1-c1[nH]ncc1C(=O)N[C@@H](CC(N)=O)c1cccc(Cl)c1 [I-601] | > 5.00 | 
NC(=O)C[C@H](NS(=O)(=O)c1c[nH]nc1-c1ccccc1F)c1cccc(Cl)c1 [I-252] | < 3.70 | 
C=CC(=O)N1CC[C@H]1C(=O)N1CCN(c2ccnc(N[C@@H]3CCCN(c4cccc(F)c4)C3)c2)CC1 [I-479] | < 3.70 | 
Fc1cccc(N2CCC[C@@H](Nc3cc([C@@H]4CCCOC4)ccn3)C2)c1 [I-123] | < 3.70 | 
CCn1cc(C(=O)N[C@@H](CC(N)=O)c2cccc(Cl)c2)c(-c2c(F)ccc(F)c2C)c1C#N [I-974] | > 5.00 | 
O=C(N[C@H](c1cccc(Cl)c1)c1ccon1)c1c[nH]nc1-c1ccccc1F [I-232] | < 3.70 | 
Cc1cccc(F)c1-c1c(C(=O)N[C@@H](CC(N)=O)c2cccc(Cl)c2)c[nH]c1C(=O)c1ccccn1 [I-699] | > 5.00 | 

Structure (SMILES) | pKd (read-out: DCAF1-3 SPR (KD)) | pKd (DCAF1-3 SPR (KD))
NC(=O)OCc1cc(F)cc(N2CCC[C@@H]3[C@H]2CCN3c2cc(N3CC4CC(C4)C3)ccn2)c1 [I-1036] | 4.00 to 5.00 | 
O=C(O)C[C@H](NC(=O)c1cn[nH]c1-c1ccccc1F)c1cccc(Cl)c1 [I-740] | 4.00 to 5.00 | 
CC(=O)N1CCN(c2ccnc(N3CC[C@@H]4[C@H]3CCCN4c3cccc(F)c3)c2)CC1 [I-948] | 4.00 to 5.00 | 
NC(=O)CC1(NC(=O)c2cn[nH]c2-c2ccccc2F)CCCc2c(Cl)cccc21 (stereo not drawn) [I-562] | < 3.70 | 
Cc1c(F)ccc(F)c1-c1[nH]ncc1C(=O)N[C@@H](CC(N)=O)c1ccc(F)c(Cl)c1 [I-819] | 4.00 to 5.00 | 
NC(=O)[C@@H]1C[C@@H](Nc2cc(N3CCCCC3)ccn2)CN(c2cccc(F)c2)C1 [I-1033] | > 5.00 | 
Clc1nc2c(c(N3CCC[C@@H](Nc4cc(N5CCOCC5)ccn4)C3)n1)CCNC2 [I-681] | 4.00 to 5.00 | 
NC(=O)CCc1cccc(N2CCC[C@H]3[C@@H]2CCN3c2cc(N3CCCCC3)ccn2)c1 [I-881] | > 5.00 | 
C=CC(=O)N1C[C@H](c2ccc(Br)cc2)[C@@H]1C(=O)Nc1cccc2cccnc12 [I-517] | < 3.70 | 
Fc1cccc(N2CCC[C@@H](Nc3cc(N4CCCC5(CC5)C4)ccn3)C2)c1 [I-573] | 4.00 to 5.00 | 
NC(=O)C[C@](NC(=O)c1c[nH]nc1-c1ccccc1F)(c1cccc(Cl)c1)C1CC1 [I-254] | < 3.70 | 
c1ccc2nc(N3CCC[C@@H](Nc4nccc(N5CCOCC5)n4)C3)ccc2c1 [I-37] | < 3.70 | 
NC[C@H]1CC[C@H](Nc2cc(N3CCCCC3)ccn2)CN1c1cccc(F)c1 [I-1021] | 4.00 to 5.00 | 
COCCOCC(=O)c1[nH]cc(C(=O)N[C@@H](CC(N)=O)c2cccc(Cl)c2)c1-c1ccccc1F [I-556] | > 5.00 | 
NC(=O)C[C@H](NC(=O)c1cn[nH]c1-c1ccccc1F)c1cccc(C(N)=O)c1 [I-353] | < 3.70 | 
O=C1COc2cc(N3CCC[C@@H](Nc4cc(N5CCOCC5)ccn4)C3)cnc2N1 [I-431] | > 5.00 | 
Fc1cccc(N2CCC[C@@H](Nc3cc(N4CC5CC(C5)C4)ccn3)C2)c1 [I-576] | > 5.00 | 
Cc1ccc([C@H](CC(N)=O)NC(=O)c2cn[nH]c2-c2ccccc2F)cc1 [I-101] | 4.00 to 5.00 | 
NCCCCCCCCCCCCCCCCCC1CCN(c2ccnc(N3CC[C@@H]4[C@H]3CCCN4c3cccc(F)c3)c2)CC1 [I-719] | < 3.70 | 
Fc1cccc(N2CCCC(N(c3cc(N4CCOCC4)ccn3)C(F)(F)F)C2)c1 (stereo not drawn) [I-305] | < 3.70 | 
c1cc(CN2CCCC2)cc(N2CCC[C@@H](Nc3cc(N4CCOCC4)ccn3)C2)c1 [I-689] | > 5.00 | 

Structure (SMILES) | pKd (read-out: DCAF1-3 SPR (KD)) | pKd (DCAF1-3 SPR (KD))
c1ccc2cc(N3CCC[C@@H](Nc4cc(N5CCOCC5)ncn4)C3)ccc2c1 [I-389] | < 3.70 | 
Fc1cccc(N2CCC[C@@H]3[C@H]2CCN3c2cc(N3CCCCC3)ccn2)c1 [I-579, (3aR,7aR)-4-(3-fluorophenyl)-1-(4-(piperidin-1-yl)pyridin-2-yl)octahydro-1H-pyrrolo[3,2-b]pyridine] |  | > 5.00
NC(=O)N1Cc2ccc(N3CCC[C@H]4[C@@H]3CCN4c3cc(N4CCCCC4)ccn3)cc2C1 [I-956] | > 5.00 | 
NC(=O)C[C@H](NC(=O)c1ccc(N)nc1-c1ccccc1F)c1cccc(Cl)c1 [I-588] | 4.00 to 5.00 | 
Fc1cccc(N2CCC[C@]3(Cc4cnc(N5CCOCC5)cc4N3)C2)c1 [I-213] | < 3.70 | 
NC(=O)C[C@H](NC(=O)c1c[nH]c(-c2ccc[nH]2)c1-c1ccccc1F)c1cccc(Cl)c1 [I-600] | > 5.00 | 
CC1(Nc2cc(N3CCOCC3)ccn2)CCCN(c2cccc(F)c2)C1 (stereo not drawn) [I-222] | < 3.70 | 
OCCOCCOCCOCCOCCC1CCCCN1c1ccnc(N2CC[C@@H]3[C@H]2CCCN3c2cccc(F)c2)c1 (stereo partly drawn) [I-971] | > 5.00 | 
OC1(c2ccccc2)CCC[C@@H](Nc2cc(N3CCCCC3)ccn2)C1 (stereo partly drawn) [I-925] | 3.70 to 4.00 | 
Cc1sc2c(c1C)C(c1ccc(Cl)cc1)=N[C@@H](CC(=O)NCCCCCCCCCCCCCCCCCC1CCN(c3ccnc(N4CC[C@@H]5[C@H]4CCCN5c4cccc(F)c4)c3)CC1)c1nnc(C)n1-2 [I-901] | < 3.70 | 
NC(=O)CCc1cc(N2CCC[C@@H]3[C@H]2CCN3c2cc(N3CCCCC3)ccn2)ccc1F [I-875] | 4.00 to 5.00 | 
Fc1cccc(N2CCCC(Nc3nccc(N4CCNCC4)n3)C2)c1 (stereo not drawn) [I-23] | < 3.70 | 
NC(=O)C[C@H](NC(=O)CNC1=Nc2ccccc2CC1)c1cccc(Cl)c1 [I-440] | < 3.70 | 
O=C(O)c1cc2c(N3CCC[C@@H](Nc4cc(N5CCOCC5)ccn4)C3)cccc2s1 [I-855] | < 3.70 | 
Nc1ccc(F)cc1N1CCC[C@@H]2[C@H]1CCN2c1cc(N2CCCCC2)ccn1 [I-811] | > 5.00 | 
c1ccc2c(N3CCC[C@@H](Nc4cc(N5CCOCC5)ncn4)C3)ccnc2c1 [I-392] | < 3.70 | 
C=CC(=O)N1CCC1C(=O)N1CCN(c2ccnc(N[C@@H]3CCCN(c4cccc(F)c4)C3)c2)CC1 (stereo partly drawn) [I-464] | < 3.70 | 
Fc1cccc([C@H]2CCC[C@@H](Nc3nccc(N4CCOCC4)n3)C2)c1 [I-181] | < 3.70 | 
